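How tested: cells in 96-well plates exposed to compound for 48 hours at five concentrations. At the TGI there is no net growth.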
Legend:
Assay in all cases: inhibition of tumour cell growth, NCI panel, 48 h
786-0 renal = tested on: 786-0 renal
A549 NSCLC = tested on: A549 NSCLC
ACHN renal = tested on: ACHN renal
CAKI-1 renal = tested on: CAKI-1 renal
CCRF-CEM leukemia = tested on: CCRF-CEM leukemia
COLO 205 colon = tested on: COLO 205 colon
DLD-1 colon = tested on: DLD-1 colon
DMS 114 small cell lung = tested on: DMS 114 small cell lung
DMS 273 small cell lung = tested on: DMS 273 small cell lung
HCC-2998 colon = tested on: HCC-2998 colon
HCT-116 colon = tested on: HCT-116 colon
HCT-15 colon = tested on: HCT-15 colon
HOP-18 NSCLC = tested on: HOP-18 NSCLC
HOP-62 NSCLC = tested on: HOP-62 NSCLC
HT29 colon = tested on: HT29 colon
IGROV1 ovarian = tested on: IGROV1 ovarian
K-562 leukemia = tested on: K-562 leukemia
KM12 colon = tested on: KM12 colon
KM20L2 colon = tested on: KM20L2 colon
LOX IMVI melanoma = tested on: LOX IMVI melanoma
LXFL 529 NSCLC = tested on: LXFL 529 NSCLC
M14 melanoma = tested on: M14 melanoma
M19-MEL melanoma = tested on: M19-MEL melanoma
MALME-3M melanoma = tested on: MALME-3M melanoma
MOLT-4 leukemia = tested on: MOLT-4 leukemia
NCI-H226 lung = tested on: NCI-H226 lung
NCI-H23 lung = tested on: NCI-H23 lung
NCI-H460 lung = tested on: NCI-H460 lung
NCI-H522 lung = tested on: NCI-H522 lung
OVCAR-3 ovarian = tested on: OVCAR-3 ovarian
OVCAR-4 ovarian = tested on: OVCAR-4 ovarian
OVCAR-5 ovarian = tested on: OVCAR-5 ovarian
OVCAR-8 ovarian = tested on: OVCAR-8 ovarian
RPMI-8226 leukemia = tested on: RPMI-8226 leukemia
RXF 393 renal = tested on: RXF 393 renal
RXF-631 renal = tested on: RXF-631 renal
SF-268 CNS = tested on: SF-268 CNS
SF-295 CNS = tested on: SF-295 CNS
SF-539 CNS = tested on: SF-539 CNS
SK-MEL-2 melanoma = tested on: SK-MEL-2 melanoma
SK-MEL-28 melanoma = tested on: SK-MEL-28 melanoma
SK-MEL-5 melanoma = tested on: SK-MEL-5 melanoma
SN12C renal = tested on: SN12C renal
SNB-19 CNS = tested on: SNB-19 CNS
SNB-75 CNS = tested on: SNB-75 CNS
SNB-78 CNS = tested on: SNB-78 CNS
SR leukemia = tested on: SR leukemia
SW-620 colon = tested on: SW-620 colon
TK-10 renal = tested on: TK-10 renal
U251 CNS = tested on: U251 CNS
UACC-257 melanoma = tested on: UACC-257 melanoma
UACC-62 melanoma = tested on: UACC-62 melanoma
UO-31 renal = tested on: UO-31 renal
A498 renal = tested on: A498 renal
EKVX NSCLC = tested on: EKVX NSCLC
HL-60(TB) leukemia = tested on: HL-60(TB) leukemia
HOP-92 NSCLC = tested on: HOP-92 NSCLC
SK-OV-3 ovarian = tested on: SK-OV-3 ovarian
XF 498 CNS = tested on: XF 498 CNS

CS(=O)(=O)c1ccc(-c2cc(-c3ccc(S(C)(=O)=O)cc3)[n+](-c3cc(-c4ccc(S(C)(=O)=O)cc4)c([O-])c(-c4ccc(S(C)(=O)=O)cc4)c3)c(-c3ccc(S(C)(=O)=O)cc3)c2)cc1
TGI (786-0 renal): > 100 µM
TGI (A549 NSCLC): > 100 µM
TGI (ACHN renal): > 100 µM
TGI (CAKI-1 renal): > 100 µM
TGI (CCRF-CEM leukemia): > 100 µM
TGI (COLO 205 colon): > 100 µM
TGI (DLD-1 colon): > 100 µM
TGI (DMS 114 small cell lung): > 100 µM
TGI (DMS 273 small cell lung): > 100 µM
TGI (HCC-2998 colon): > 100 µM
TGI (HCT-116 colon): > 100 µM
TGI (HCT-15 colon): > 100 µM
TGI (HOP-18 NSCLC): > 100 µM
TGI (HOP-62 NSCLC): > 100 µM
TGI (HT29 colon): > 100 µM
TGI (IGROV1 ovarian): > 100 µM
TGI (K-562 leukemia): > 100 µM
TGI (KM12 colon): > 100 µM
TGI (KM20L2 colon): > 100 µM
TGI (LOX IMVI melanoma): > 100 µM
TGI (LXFL 529 NSCLC): > 100 µM
TGI (M14 melanoma): > 100 µM
TGI (M19-MEL melanoma): > 100 µM
TGI (MALME-3M melanoma): > 100 µM
TGI (MOLT-4 leukemia): > 100 µM
TGI (NCI-H226 lung): > 100 µM
TGI (NCI-H23 lung): > 100 µM
TGI (NCI-H460 lung): > 100 µM
TGI (NCI-H522 lung): > 100 µM
TGI (OVCAR-3 ovarian): > 100 µM
TGI (OVCAR-4 ovarian): > 100 µM
TGI (OVCAR-5 ovarian): > 100 µM
TGI (OVCAR-8 ovarian): > 100 µM
TGI (RPMI-8226 leukemia): > 100 µM
TGI (RXF 393 renal): > 100 µM
TGI (RXF-631 renal): > 100 µM
TGI (SF-268 CNS): > 100 µM
TGI (SF-295 CNS): > 100 µM
TGI (SF-539 CNS): > 100 µM
TGI (SK-MEL-2 melanoma): > 100 µM
TGI (SK-MEL-28 melanoma): > 100 µM
TGI (SK-MEL-5 melanoma): > 100 µM
TGI (SN12C renal): > 100 µM
TGI (SNB-19 CNS): > 100 µM
TGI (SNB-75 CNS): > 100 µM
TGI (SNB-78 CNS): > 100 µM
TGI (SR leukemia): > 100 µM
TGI (SW-620 colon): > 100 µM
TGI (TK-10 renal): > 100 µM
TGI (U251 CNS): > 100 µM
TGI (UACC-257 melanoma): > 100 µM
TGI (UACC-62 melanoma): > 100 µM
TGI (UO-31 renal): > 100 µM

CC1(O)C=CC(=O)C=C1
TGI (786-0 renal): 49.6 µM
TGI (A498 renal): > 78.6 µM
TGI (A549 NSCLC): > 100 µM
TGI (ACHN renal): > 62.8 µM
TGI (CAKI-1 renal): 91.5 µM
TGI (CCRF-CEM leukemia): > 77 µM
TGI (COLO 205 colon): > 100 µM
TGI (DLD-1 colon): 28.2 µM
TGI (DMS 114 small cell lung): 32.3 µM
TGI (DMS 273 small cell lung): 38.5 µM
TGI (EKVX NSCLC): > 100 µM
TGI (HCC-2998 colon): > 100 µM
TGI (HCT-116 colon): > 100 µM
TGI (HCT-15 colon): 31.7 µM
TGI (HL-60(TB) leukemia): 52.8 µM
TGI (HOP-18 NSCLC): > 100 µM
TGI (HOP-62 NSCLC): > 79.9 µM
TGI (HOP-92 NSCLC): > 100 µM
TGI (HT29 colon): > 100 µM
TGI (IGROV1 ovarian): 70.2 µM
TGI (K-562 leukemia): > 100 µM
TGI (KM12 colon): > 75.4 µM
TGI (KM20L2 colon): > 100 µM
TGI (LOX IMVI melanoma): 52.5 µM
TGI (LXFL 529 NSCLC): 26.4 µM
TGI (M14 melanoma): 41.6 µM
TGI (M19-MEL melanoma): 58.6 µM
TGI (MALME-3M melanoma): 39.5 µM
TGI (MOLT-4 leukemia): > 72.7 µM
TGI (NCI-H226 lung): > 100 µM
TGI (NCI-H23 lung): 93.8 µM
TGI (NCI-H460 lung): 44.9 µM
TGI (NCI-H522 lung): 33.7 µM
TGI (OVCAR-3 ovarian): 51.4 µM
TGI (OVCAR-4 ovarian): > 91.1 µM
TGI (OVCAR-5 ovarian): > 100 µM
TGI (OVCAR-8 ovarian): > 68.8 µM
TGI (RPMI-8226 leukemia): > 100 µM
TGI (RXF 393 renal): 44.4 µM
TGI (SF-268 CNS): 29.2 µM
TGI (SF-295 CNS): > 100 µM
TGI (SF-539 CNS): 54.9 µM
TGI (SK-MEL-2 melanoma): 56 µM
TGI (SK-MEL-28 melanoma): 38.5 µM
TGI (SK-MEL-5 melanoma): > 89.4 µM
TGI (SK-OV-3 ovarian): > 100 µM
TGI (SN12C renal): > 100 µM
TGI (SNB-19 CNS): 70.3 µM
TGI (SNB-75 CNS): > 100 µM
TGI (SNB-78 CNS): 97.2 µM
TGI (SR leukemia): 61.2 µM
TGI (SW-620 colon): > 100 µM
TGI (TK-10 renal): > 93 µM
TGI (U251 CNS): 48.1 µM
TGI (UACC-257 melanoma): 34.2 µM
TGI (UACC-62 melanoma): 36.2 µM
TGI (UO-31 renal): > 84.5 µM
TGI (XF 498 CNS): > 65.1 µM

From PubChem BioAssay (NCI)
